According to patent US9778264B2, “Identification and enrichment of cell subpopulations” (STEM CENTRX, INC., priority 2010, dated 2017):

Columns and labels:
colorectal NTX tumors = experiment: Chemoresistance of tumor cell subpopulations in mice bearing colorectal NTX tumors; assay type: in vivo; conditions: 15 mg/kg twice weekly
Description: To assess chemoresistance of tumor cell subpopulations, in vivo cohorts of mice bearing NTX colorectal tumors were randomized into two groups, such that the average tumor volume for each group was roughly equal. The groups were then treated twice weekly with either 15 mg/kg irinotecan or an equivalent volume of vehicle buffer. Tumor volumes and animal health were monitored and recorded twice weekly, a day prior to each injection.

pancreatic NTX tumors = experiment: Chemoresistance of tumor cell subpopulations in mice bearing pancreatic NTX tumors
Description: Mice then received twice weekly intraperitoneal dosing of 15 mg/kg irinotecan or 25 mg/kg gemcitabine, respectively, for a period of approximately 20 days before they were euthanized for tumor resection and cellular analysis.
Harvested tumors were then dissociated and constituent single cells were analyzed by flow cytometry.

Row | Structure (SMILES) | frequency of cells with TPC phenotype (CD46hi CD324+ CD66c-) among live human cells, treated vs saline-treated (colorectal NTX tumors; flow cytometry of harvested tumors, FIGS. 24B and 24C) | CD66c phenotype of residual cells among the CD46hi CD324+ population (colorectal NTX tumors; flow cytometry, in vehicle-treated tumors most residual cells were CD66c+, FIG. 24D) | tumor volume (growth of treated tumors) (pancreatic NTX tumors; 25 mg/kg intraperitoneal twice weekly, vs vehicle-treated tumors that continued to grow unabated, FIG. 25A) | residual tumor cell marker phenotype (CD46 expression) (pancreatic NTX tumors; 25 mg/kg twice weekly, flow cytometry of harvested tumors, vehicle vs treated, FIG. 25B)
1 | CCc1c2c(nc3ccc(OC(=O)N4CCC(N5CCCCC5)CC4)cc13)-c1cc3c(c(=O)n1C2)COC(=O)[C@]3(O)CC [irinotecan] | more than 2.5 fold | most residual cells were CD66c^− |  | 
2 | Nc1ccn([C@@H]2O[C@H](CO)[C@@H](O)C2(F)F)c(=O)n1 [gemcitabine] |  |  | decreased in volume | enrichment for tumor cells expressing markers indicative of TIC
